Measurements reported in ChEMBL document CHEMBL1201862, “PubChem BioAssay data set” (2004).
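Values below derive from 48-hour exposures of cells grown in 96-well plates, with endpoints linearly interpolated between the two concentrations bracketing the appropriate inhibition level. At the GI50, growth is halved.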 Active and inactive are the calls of the source. Rule as the data show it: active = GI50 up to about 1.1 µM and inactive = higher.

Legend:
Experiment in all cases: growth of human tumour cells (NCI), 48 h
MOLT-4 = tested on: MOLT-4
SK-MEL-28 = tested on: SK-MEL-28
NCI-H460 = tested on: NCI-H460
EKVX = tested on: EKVX
K562 = tested on: K562
KM12 = tested on: KM12
UO-31 = tested on: UO-31
LXFL 529 = tested on: LXFL 529
COLO 205 = tested on: COLO 205
RPMI-8226 = tested on: RPMI-8226
SF-268 = tested on: SF-268
HCT-116 = tested on: HCT-116
Malme-3M = tested on: Malme-3M
SK-MEL-2 = tested on: SK-MEL-2
HCC 2998 = tested on: HCC 2998
UACC-62 = tested on: UACC-62
SF-295 = tested on: SF-295
MDA-N = tested on: MDA-N
MCF7 = tested on: MCF7
PC-3 = tested on: PC-3

For `CCOC(OC1=CCCC1)C(C)[Se]c1ccccc1` (stereo not drawn), the GI50 (MOLT-4) was 22.3 µM (inactive), the GI50 (SK-MEL-28) was 42.1 µM (inactive) and the GI50 (NCI-H460) was 19.6 µM (inactive). The GI50 (EKVX) was 34.2 µM (inactive), the GI50 (K562) was 55.5 µM (inactive) and the GI50 (KM12) was 43.8 µM (inactive). For the same compound, the GI50 (UO-31) was 39.3 µM (inactive), the GI50 (LXFL 529) was 35.7 µM (inactive) and the GI50 (COLO 205) was 18.7 µM (inactive). For the same compound, the GI50 (RPMI-8226) was 18.1 µM (inactive), the GI50 (SF-268) was 17.6 µM (inactive) and the GI50 (HCT-116) was 20.9 µM (inactive). For the same compound, the GI50 (Malme-3M) was 32.8 µM (inactive), the GI50 (SK-MEL-2) was 48.4 µM (inactive) and the GI50 (HCC 2998) was 32.4 µM (inactive). The GI50 (UACC-62) was 23.9 µM (inactive) and the GI50 (SF-295) was 31.5 µM (inactive).
In the case of `CCN(CC)CCCNc1ccc2nnn3c4ccc(O)cc4c(=O)c1c23`, the GI50 (MOLT-4) is reported as 0.385 µM (active), the GI50 (MDA-N) is reported as 8.71 µM (inactive) and the GI50 (SK-MEL-28) is reported as 18 µM (inactive). The GI50 (NCI-H460) was 0.653 µM (active), the GI50 (EKVX) was 16.1 µM (inactive) and the GI50 (K562) was 7.23 µM (inactive). The GI50 (MCF7) was 14 µM (inactive), the GI50 (KM12) was 6.61 µM (inactive) and the GI50 (UO-31) was 0.968 µM (active). The GI50 (LXFL 529) was 7.67 µM (inactive), the GI50 (COLO 205) was 2.81 µM (inactive) and the GI50 (RPMI-8226) was 3.28 µM (inactive). The GI50 (SF-268) was 5.3 µM (inactive), the GI50 (HCT-116) was 1.15 µM (inactive) and the GI50 (Malme-3M) was 13.1 µM (inactive). For the same compound, the GI50 (SK-MEL-2) was 15.1 µM (inactive), the GI50 (HCC 2998) was 9.06 µM (inactive) and the GI50 (PC-3) was 6.5 µM (inactive). The GI50 (UACC-62) was 16.6 µM (inactive) and the GI50 (SF-295) was 9.51 µM (inactive).
In the case of `C/C(=C1/CCC/C(=C(/C)c2ccccc2)C1=O)c1ccccc1`, the GI50 (MOLT-4) is reported as 21.5 µM (inactive), the GI50 (SK-MEL-28) is reported as 36.3 µM (inactive) and the GI50 (NCI-H460) is reported as 27.2 µM (inactive). For the same compound, the GI50 (EKVX) was 45.8 µM (inactive), the GI50 (K562) was 18.3 µM (inactive) and the GI50 (KM12) was 27 µM (inactive). For the same compound, the GI50 (UO-31) was 44.6 µM (inactive), the GI50 (LXFL 529) was 43.1 µM (inactive) and the GI50 (COLO 205) was 65.6 µM (inactive). For the same compound, the GI50 (RPMI-8226) was 23.9 µM (inactive), the GI50 (SF-268) was 45.7 µM (inactive) and the GI50 (HCT-116) was 18.5 µM (inactive). The GI50 (Malme-3M) was 14.9 µM (inactive), the GI50 (SK-MEL-2) was 15.1 µM (inactive) and the GI50 (HCC 2998) was 46.3 µM (inactive). The GI50 (UACC-62) was 37.2 µM (inactive) and the GI50 (SF-295) was 38.1 µM (inactive).
With `COc1ccc(/C=N/NC(=O)C2=C(N)N(c3ccccc3)C(=C(C#N)C#N)S2)cc1` the GI50 (MOLT-4) was > 100 µM (inactive), the GI50 (MDA-N) was > 100 µM (inactive) and the GI50 (SK-MEL-28) was > 100 µM (inactive). For the same compound, the GI50 (NCI-H460) was > 100 µM (inactive), the GI50 (EKVX) was > 100 µM (inactive) and the GI50 (K562) was > 100 µM (inactive). For the same compound, the GI50 (MCF7) was > 100 µM (inactive), the GI50 (KM12) was > 100 µM (inactive) and the GI50 (UO-31) was > 100 µM (inactive). The GI50 (LXFL 529) was > 100 µM (inactive), the GI50 (COLO 205) was > 100 µM (inactive) and the GI50 (RPMI-8226) was > 100 µM (inactive). The GI50 (SF-268) was > 100 µM (inactive), the GI50 (HCT-116) was > 100 µM (inactive) and the GI50 (Malme-3M) was > 100 µM (inactive). The GI50 (HCC 2998) was > 100 µM (inactive), the GI50 (PC-3) was > 100 µM (inactive) and the GI50 (UACC-62) was > 100 µM (inactive). The GI50 (SF-295) was 45 µM (inactive).
